Assays:
Rat ASCT2 = molecular target: T1, Rat ASCT2 (Rattus norvegicus, UniProt D3ZJ25); type: cell-based
T1 sequence (D3ZJ25 1-555): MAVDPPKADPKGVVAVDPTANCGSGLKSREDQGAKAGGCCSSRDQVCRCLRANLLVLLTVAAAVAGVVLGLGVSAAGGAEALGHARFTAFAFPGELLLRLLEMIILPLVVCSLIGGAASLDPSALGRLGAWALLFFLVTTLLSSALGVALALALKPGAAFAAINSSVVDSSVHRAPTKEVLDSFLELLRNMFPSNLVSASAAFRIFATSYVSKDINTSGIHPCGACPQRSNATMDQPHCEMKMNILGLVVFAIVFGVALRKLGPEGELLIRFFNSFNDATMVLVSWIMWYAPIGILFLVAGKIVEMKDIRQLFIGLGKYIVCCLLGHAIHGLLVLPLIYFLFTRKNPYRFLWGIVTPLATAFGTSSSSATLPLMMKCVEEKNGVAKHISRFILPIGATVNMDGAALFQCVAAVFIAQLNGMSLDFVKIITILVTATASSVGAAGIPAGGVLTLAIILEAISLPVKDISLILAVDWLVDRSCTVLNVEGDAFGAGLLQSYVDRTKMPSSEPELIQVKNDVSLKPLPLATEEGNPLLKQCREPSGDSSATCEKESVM

ASCT2 = details: commercially available ASCT2 inhibitor; cited from earlier work

## O=C(O)[C@@H]1C[C@@H](Cc2ccccc2F)CN1 [(R)-γ-(2-fluoro-benzyl)-L-proline]
Rat ASCT2
  Ki: 83 ± 20 µM

## O=C(O)[C@@H]1C[C@@H](Cc2ccc(-c3ccccc3)cc2)CN1 [(R)-γ-(4-biphenylmethyl)-L-proline]
Rat ASCT2; compared to authors' earlier ASCT2 inhibitors [11],[15]
  higher affinity compared to any other ASCT2 inhibitor tested so far: about 8 fold

## N[C@@H](CCC(=O)Nc1ccc([N+](=O)[O-])cc1)C(=O)O [L-γ-glutamyl-nitroanilide]
ASCT2
  affinity for ASCT2: mM affinity

## O=C(O)[C@@H]1CCCN1 [proline]
Rat ASCT2; concentration up to 1 mM
  activity in ASCT2: does not induce any activity

From PMC5363072 (Bioorganic & medicinal chemistry letters, 2016)
